Assays:
HT-29 cells = assay: HT29 cell proliferation assay, CTG method; format: cell-based; details: Homo sapiens; HT-29, CTG, 96 h; median; read-out: 2D-PROLI HT-29 CTG 96 h, IC50 - [mol/l] (median)
Description: CELL PROLIFERATION ASSAY CTG METHOD, 384-well version: Day 1: plated 400 cells/30 μL/well in growth medium (DMEM/Ham's F12; (Biochrom; #FG 4815, mit stabilem Glutamin)+FCS (final: 10%); (Biochrom; #S 0415)) in 384-well black plates (Corning #3571). Plated sister wells in a separate plate for time zero determination. Incubated all plates overnight at 37° C. Day 2: added test compounds in serial dilutions using the HP D300 Digital Dispenser and incubated at 37° C. for 96 h. Measured time zero plate: add 30 μL/well CTG solution (Promega CellTiter-Glo solution (catalog #G7573)) to wells in time zero plate; incubated for 2 minutes in a orbital shaker to induce cell lysis; allowed the plate to incubate at room temperature for additional 10 min to stabilize luminescent signal and read luminescence on PheraStar (rapid mode—0.02 sec/well; GAIN 3000). Day 6: Added 30 μL/well CTG solution to all test wells, incubated for 2 minutes in a orbital shaker to induce cell lysis; allowed the plate to incubate at room temperature for additional 10 min to stabilize luminescent signal and read luminescence on PheraStar (rapid mode—0.02 sec/well; GAIN 3000 Proliferation IC50s were calculated using the DRC application in ShiNy Analysis Platform-SNAP.”

human CSNK1D = human CSNK1D (Homo sapiens (Human), UniProt P48730); assay: CSNK1D assay (ADP-Glo, 1 μM ATP); format: biochemical; details: median, read-out: CSNK1D IC50 [mol/l] (median)
Description: CSNK1D-inhibitory activity of compounds of the present invention in presence of 1 μM adenosine-tri-phosphate (ATP) was quantified employing the CSNK1D assay as described in the following paragraphs. In essence, the enzyme activity is measured by quantification of the adenosine-di-phosphate (ADP), which is generated as a co-product of the enzyme reaction, via the “ADP-Glo™ Kinase Assay” kit from the company Promega. This detection system works as follows: In a first step the ATP not consumed in the kinase reaction is quantitatively converted to CAMP employing an adenylate cyclase (“ADP-Glo-reagent”), then the adenylate cyclase is stopped and the ADP generated in the kinase reaction converted to ATP which generates in a luciferase-based reaction a glow-luminescence signal (“Kinase Detection Reagent”).
Recombinant fusion protein of N-terminal Glutathion-S-Transferase (GST) and full-length human CSNK1D, expressed by baculovirus infected insect cells and purified via Glutathion affinity chromatography, was purchased from Life Technologies (product no. PV3665) and used as enzyme. As substrate for the kinase reaction the biotinylated peptide Btn-Ahx-SGSEGDSESGEEEG (C-terminus in amide form) was used which can be purchased e.g. from the company Biosyntan (Berlin-Buch, Germany).
For the assay 50 nl of a 100-fold concentrated solution of the test compound in DMSO was pipetted into a white 1536-well microtiter plate (Greiner Bio-One, Frickenhausen, Germany), 2 μL of a solution of CSNK1D in aqueous assay buffer [50 mM HEPES pH 7.5, 10% (v/v) glycerol, 10 mM MgCl2, 50 mM NaCl, 1 mM dithiothreitol, 0.01% (w/v) bovine serum albumin, 0.01% (v/v) Triton X-100] were added and the mixture was incubated for 15 min at 22° C. to allow pre-binding of the test compounds to the enzyme before the start of the kinase reaction. Then the kinase reaction was started by the addition of 3 μL of a solution of ATP (1.67 μM=>final conc. in the 5 μL assay volume is 1 μM) and peptide substrate (50 μM=>final conc. in the 5 μL assay volume is 30 μM) in assay buffer and the resulting mixture was incubated for a reaction time of 30 min at 22° C. The concentration of CSNK1D was adjusted depending of the activity of the enzyme lot and was chosen appropriate to have the assay in the linear range, a typical concentration is about 0.5 ng/μL. The reaction was stopped by the addition of 2.5 μL of “ADP-Glo-reagent” (1:1.5 fold diluted with water) and the resulting mixture was incubated at 22° C. for 1 h to convert the ATP not consumed in the kinase reaction completely to CAMP. Subsequently 2.5 μL of the “kinase detection reagent” (1.2 fold more concentrated than recommended by the producer) were added, the resulting mixture was incubated at 22° C. for 1 h and then the luminescence measured with a suitable measurement instrument (e.g. Viewlux™ from Perkin-Elmer). The amount of emitted light was taken as a measure for the amount of ADP generated and thereby for the activity of the CSNK1D.
The data were normalised (enzyme reaction without inhibitor=0% inhibition, all other assay components but no enzyme=100% inhibition).

HCT 116 cells = assay: HCT 116 cell proliferation assay, CTG; format: cell-based; details: Homo sapiens; HCT 116, CTG, 96 h; median; read-out: 2D-PROLI HCT 116 CTG 96 h, IC50 - [mol/l] (median)
Description: 400 HCT 116 cells/30 μL/well were plated in growth medium (DMEM/Ham's F12, 10% FCS) in a 384-well plate (CORNING #3571) at day 1. Reference plate was seeded for time zero determination. All plates were incubated overnight 37° C. Day 2: test compound was added in 7-step dilution and incubate at 37° C. for 96 h. Day 2: time zero plate: 30 μL/well CTG solution (Promega Cell Titer Glo solution; catalog #G755B and G756B) were added, incubated for 30 minutes, read luminescence on PheraStar. Day 6: compound treated plates: 30 μL/well CTG solution (Promega Cell Titer Glo solution; catalog #G755B and G756B) were added, incubated for 30 minutes, luminescence was read on PheraStar. Proliferation was calculated after subtracting time zero luminescence values from day 6 values and comparing to untreated wells. The IC50 values were determined using the four parameter fit.

human CSNK1D, sequence (P48730 whole entry): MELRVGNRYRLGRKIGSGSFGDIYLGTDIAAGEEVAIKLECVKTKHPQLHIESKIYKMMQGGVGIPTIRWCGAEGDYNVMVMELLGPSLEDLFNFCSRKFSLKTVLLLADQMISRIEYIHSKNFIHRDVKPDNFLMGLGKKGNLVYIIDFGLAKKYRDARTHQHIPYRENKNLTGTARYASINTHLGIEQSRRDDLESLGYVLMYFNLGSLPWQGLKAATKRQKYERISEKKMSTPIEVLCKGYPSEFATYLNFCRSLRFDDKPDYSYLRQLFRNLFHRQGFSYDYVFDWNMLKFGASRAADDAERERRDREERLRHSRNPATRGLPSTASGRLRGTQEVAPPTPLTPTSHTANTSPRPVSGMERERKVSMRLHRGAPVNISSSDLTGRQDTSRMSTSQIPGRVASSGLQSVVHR

Row | Compound | IC50 (HT-29 cells) [nM] | IC50 (human CSNK1D) [nM] | IC50 (HCT 116 cells) [nM]
1 | Cn1cc(C(CC(F)F)C(=O)Nc2cc(-c3[nH]c4cccnc4c3-c3ccccn3)ccn2)cn1 (stereo not drawn) [Example 19, 4,4-difluoro-2-(1-methylpyrazol-4-yl)-N-[4-[3-(2-pyridyl)-^1H-pyrrolo[3,2-b]pyridin-2-yl]-2-pyridyl]butanamide] | 1240 | 13.9 | 1680
2 | O=C(Cc1ccon1)Nc1cc(-c2[nH]c3cccnc3c2-c2ccccn2)ccn1 [Example 10, 2-isoxazol-3-yl-N-[4-[3-(2-pyridyl)-^1H-pyrrolo[3,2-b]pyridin-2-yl]-2-pyridyl]acetamide] | 797 | 5.6 | 848
3 | Cc1cc(CC(=O)Nc2cc(-c3[nH]c4cccnc4c3-c3ccccn3)ccn2)n(C)n1 [Example 14] | 508 | 4.88 | 544
4 | O=C(Cc1cnc2ccccn12)Nc1cc(-c2[nH]c3cccnc3c2-c2ccccn2)ccn1 [Example 1, 2-imidazo[1,2-a]pyridin-3-yl-N-[4-[3-(2-pyridyl)-^1H-pyrrolo[3,2-b]pyridin-2-yl]-2-pyridyl]acetamide] | 2670 | 11.4 | 3870
5 | O=C(Cc1ccno1)Nc1cc(-c2[nH]c3cccnc3c2-c2ccccn2)ccn1 [Example 23, 2-isoxazol-5-yl-N-[4-[3-(2-pyridyl)-^1H-pyrrolo[3,2-b]pyridin-2-yl]-2-pyridyl]acetamide] | 768 | 4.68 | 553
6 | Cn1cc(CC(=O)Nc2cc(-c3[nH]c4cccnc4c3-c3ccccn3)ccn2)cn1 [Example 2, 2-(1-methylpyrazol-4-yl)-N-[4-[3-(2-pyridyl)-^1H-pyrrolo[3,2-b]pyridin-2-yl]-2-pyridyl]acetamide] | 2670 | 11.1 | 3600
7 | Cc1ocnc1CC(=O)Nc1cc(-c2[nH]c3cccnc3c2-c2ccccn2)ccn1 [Example 11, 2-(5-methyloxazol-4-yl)-N-[4-[3-(2-pyridyl)-^1H-pyrrolo[3,2-b]pyridin-2-yl]-2-pyridyl]acetamide] | 1410 | 8.09 | 964

Stronger by IC50 (HT-29 cells), values ahead:

Row | IC50 (HT-29 cells) [nM] | IC50 (human CSNK1D) [nM] | IC50 (HCT 116 cells) [nM] | Compound
8 | 149 | 3.75 | 171 | O=C(Cc1cc2ccccn2n1)Nc1cc(-c2[nH]c3cccnc3c2-c2ccccn2)ccn1 [Example 15, 2-pyrazolo[1,5-a]pyridin-2-yl-N-[4-[3-(2-pyridyl)-^1H-pyrrolo[3,2-b]pyridin-2-yl]-2-pyridyl]acetamide]
9 | 442 | 5.68 | 626 | Cc1cc(CC(=O)Nc2cc(-c3[nH]c4cccnc4c3-c3ccccn3)ccn2)on1 [Example 13, 2-(3-methylisoxazol-5-yl)-N-[4-[3-(2-pyridyl)-^1H-pyrrolo[3,2-b]pyridin-2-yl]-2-pyridyl]acetamide]
10 | 466 | 6.64 | 496 | Cc1cc(CC(=O)Nc2cc(-c3[nH]c4cccnc4c3-c3ccccn3)ccn2)no1 [Example 26, 2-(5-methylisoxazol-3-yl)-N-[4-[3-(2-pyridyl)-^1H-pyrrolo[3,2-b]pyridin-2-yl]-2-pyridyl]acetamide]
11 | 125 | 3.44 | 91.1 | O=C(Cc1cnc2ccccc2n1)Nc1cc(-c2[nH]c3cccnc3c2-c2ccccn2)ccn1 [Example 6, N-[4-[3-(2-pyridyl)-^1H-pyrrolo[3,2-b]pyridin-2-yl]-2-pyridyl]-2-quinoxalin-2-yl-acetamide]
12 | 337 | 4.84 | 357 | O=C(Cc1ccns1)Nc1cc(-c2[nH]c3cccnc3c2-c2ccccn2)ccn1 [Example 22, 2-isothiazol-5-yl-N-[4-[3-(2-pyridyl)-^1H-pyrrolo[3,2-b]pyridin-2-yl]-2-pyridyl]acetamide]
